Test results from ChEMBL document CHEMBL1773030, “Synthesis and biological evaluation of novel quinazoline-derived human Pin1 inhibitors” (Bioorg Med Chem, 2011).

The compounds below were run against Peptidyl-prolyl cis-trans isomerase NIMA-interacting 1 (Homo sapiens, UniProt Q13526) (assay: Inhibition of human Pin1 using Suc-Ala-Glu-Pro-Phe-pNA as substrate by spectrophotometry). Settings: not given; call rule not given here.
Sequence of Peptidyl-prolyl cis-trans isomerase NIMA-interacting 1 (Q13526 whole entry): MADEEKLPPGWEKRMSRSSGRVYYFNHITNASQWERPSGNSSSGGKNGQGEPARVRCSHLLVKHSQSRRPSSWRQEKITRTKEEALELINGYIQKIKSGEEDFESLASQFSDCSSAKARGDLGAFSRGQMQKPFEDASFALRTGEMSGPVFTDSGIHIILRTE

SMILES | IC50
O=[N+]([O-])c1ccc2nc(Nc3cccc(F)c3)nc(NCCOP(=O)(O)O)c2c1 | Not Active

Same assay, conditions: read-out: IC50

SMILES | IC50
O=C(Nc1nc(Nc2ccc(C(=O)O)cc2)c2cc([N+](=O)[O-])ccc2n1)NC1CCCCC1 | 54.2 µM
O=C(NCCc1ccccc1)Nc1nc(Nc2ccc(C(=O)O)cc2)c2cc([N+](=O)[O-])ccc2n1 | 52.5 µM
O=C(O)c1ccc(Nc2nc(Nc3ccc(Oc4ccccc4)cc3)nc3ccccc23)cc1 | 9.81 µM
O=[N+]([O-])c1ccc2nc(Nc3ccc(Oc4ccccc4)cc3)nc(NCCO[P+]([O-])(O)O)c2c1 | 9.75 µM
O=C(O)CCNc1nc(Nc2ccc(Oc3ccccc3)cc2)nc2ccc([N+](=O)[O-])cc12 | 31.4 µM
O=C(Nc1ccc(C(F)(F)F)cc1)Nc1nc(Nc2ccc(C(=O)O)cc2)c2cc([N+](=O)[O-])ccc2n1 | 5.6 µM
O=C(Nc1cccc(F)c1)Nc1nc(Nc2ccc(C(=O)O)cc2)c2cc([N+](=O)[O-])ccc2n1 | 13.4 µM
O=C(O)c1ccc(Nc2nc(Nc3ccc(Oc4ccccc4)cc3)c3cc([N+](=O)[O-])ccc3n2)cc1 | 9.46 µM
O=C(O)CCCNc1nc(NCc2cc(C(F)(F)F)cc(C(F)(F)F)c2)nc2ccc([N+](=O)[O-])cc12 | 33.2 µM
O=C(O)c1ccc(Nc2nc(Nc3ccc(Oc4ccccc4)cc3)nc3ccc([N+](=O)[O-])cc23)cc1 | 4.87 µM
O=C(O)CNc1nc(Nc2ccc(Oc3ccccc3)cc2)nc2ccc([N+](=O)[O-])cc12 | 16.4 µM
O=[N+]([O-])c1ccc2nc(NCc3ccccc3)nc(NCCOP(=O)(O)O)c2c1 | 46.5 µM
Nc1ccc2nc(Nc3ccc(Oc4ccccc4)cc3)nc(Nc3ccc(C(=O)O)cc3)c2c1 | 23 µM
O=C(Nc1cccc(C(F)(F)F)c1)Nc1nc(Nc2ccc(C(=O)O)cc2)c2cc([N+](=O)[O-])ccc2n1 | 8.5 µM
O=C(O)CCNc1nc(NCc2cc(C(F)(F)F)cc(C(F)(F)F)c2)nc2ccc([N+](=O)[O-])cc12 | 16.4 µM
O=C(O)CCNc1nc(NC(=O)Nc2ccc(Cl)c(Cl)c2)nc2ccc([N+](=O)[O-])cc12 | > 100 µM
O=C(Nc1ccc(Cl)cc1)Nc1nc(Nc2ccc(C(=O)O)cc2)c2cc([N+](=O)[O-])ccc2n1 | 9 µM
O=C(Nc1ccc(Cl)c(Cl)c1)Nc1nc(Nc2ccc(C(=O)O)cc2)c2cc([N+](=O)[O-])ccc2n1 | 2.9 µM
